Laboratory results: patent US20260256694A1, “Multilamellar Vesicle Drug Formulation” (Nanostar Pharmaceuticals Ltd., priority 2022, published 2026)

Assay: Pharmacokinetics after oral gavage in mice
Settings: 10 mg/kg
Protocol: Concentrations of drugs and lipids were simultaneously quantified by a ACQUITY UPLC H-Class System (Waters, Milford, MA)^15. The mobile phase was composed of solvent A: 0.1% trifluoroacetic acid (TFA) in water and solvent B: 0.1% TFA in methanol. […] Concentrations of drugs and lipids were measured by integrating the peak area under the curve and compared to the standard curves. For plasma CQ quantitation, a Waters QDa mass spectrometry detector was used. Ionization was carried out at 250° C.
MLV-CQ drug formulation of the present invention or free CQ (dissolved in saline) was administered through oral gavage to mice at 10 mg CQ/kg (50 mg lipid/kg). […] Plasma was isolated by centrifugation at 4° C. for 10 min at 10,000 g. Forty-five L of plasma was mixed with 300 μL ethanol, vortexed for 30 s, placed on ice for 30 min, and centrifuged twice at 12,500 rpm for 5 min. The supernatant (280 μL) was collected, lyophilized, and reconstituted in 45 μL ethanol. Ten L of the sample was then injected into the UPLC to measure CQ concentration. Pharmacokinetics parameters and AUC were analyzed using PK solver^16 and GraphPad Prisim version 8.0 (GraphPad Software, San Diego, CA, USA), respectively.

CQ in plasma at 24 h: completely eliminated
SMILES: CCN(CC)CCCC(C)Nc1ccnc2cc(Cl)ccc12 (stereo not shown) [CQ solution, chloroquine diphosphate]
